Experimental data reported in ChEMBL document CHEMBL1201862, “PubChem BioAssay data set” (2004).
Where a name gives a salt, the structure may show the parent alone. The source made the active and inactive calls.

How the values were obtained:
Cysteine protease ATG4B = target: T1, Cysteine protease ATG4B (Homo sapiens, UniProt Q9Y4P1); format: functional;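 note: Fluorescence-based dose-response confirmation assay measuring inhibition of ATG4B activity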
T1 sequence (Q9Y4P1 whole entry): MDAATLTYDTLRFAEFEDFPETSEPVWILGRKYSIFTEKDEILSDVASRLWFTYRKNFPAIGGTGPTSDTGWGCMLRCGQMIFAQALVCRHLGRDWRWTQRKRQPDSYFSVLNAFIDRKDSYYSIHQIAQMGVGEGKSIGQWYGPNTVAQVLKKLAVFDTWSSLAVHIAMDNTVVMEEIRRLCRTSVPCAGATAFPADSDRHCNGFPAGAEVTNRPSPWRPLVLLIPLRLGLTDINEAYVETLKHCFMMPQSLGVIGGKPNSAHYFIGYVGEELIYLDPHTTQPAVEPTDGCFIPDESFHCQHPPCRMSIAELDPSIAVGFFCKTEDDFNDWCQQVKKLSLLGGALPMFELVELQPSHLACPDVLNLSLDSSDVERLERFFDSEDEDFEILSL

Phospholipase A2 = Phospholipase A2 (Homo sapiens, UniProt P04054); format: functional;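 note: confirmatory dose-response counterscreen on phospholipase A2, testing hits that came from an ultra-high-throughput screen for ATG4B inhibitors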
Phospholipase A2, sequence (P04054 whole entry): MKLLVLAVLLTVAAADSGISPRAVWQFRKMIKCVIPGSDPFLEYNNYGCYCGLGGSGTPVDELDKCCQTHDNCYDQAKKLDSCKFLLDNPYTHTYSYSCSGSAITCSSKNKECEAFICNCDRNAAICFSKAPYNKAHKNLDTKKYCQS

[1] = target: Photoreceptor-specific nuclear receptor (Homo sapiens, UniProt Q9Y5X4); assay: ligands suppressing NR2E3 nuclear receptor activity – biochemical, TR-FRET, dose response (AID 463256); format: functional
Photoreceptor-specific nuclear receptor, sequence (Q9Y5X4 whole entry): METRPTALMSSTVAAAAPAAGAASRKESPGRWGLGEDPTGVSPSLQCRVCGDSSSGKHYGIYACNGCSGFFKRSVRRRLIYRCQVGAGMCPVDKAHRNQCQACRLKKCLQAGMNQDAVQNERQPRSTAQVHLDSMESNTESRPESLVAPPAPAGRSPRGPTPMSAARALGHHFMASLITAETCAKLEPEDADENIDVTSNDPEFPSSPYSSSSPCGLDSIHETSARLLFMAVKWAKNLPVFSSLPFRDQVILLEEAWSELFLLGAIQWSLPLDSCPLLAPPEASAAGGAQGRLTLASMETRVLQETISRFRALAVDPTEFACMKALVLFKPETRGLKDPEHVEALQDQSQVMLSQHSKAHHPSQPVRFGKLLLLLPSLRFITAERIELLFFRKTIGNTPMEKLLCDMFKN

[2] = target: Peroxisome proliferator-activated receptor gamma/Nuclear receptor corepressor 2 (Homo sapiens, UniProt P37231+Q9Y618); assay: Counterscreen for NR2E3 inverse agonists: TR-FRET-based biochemical high throughput dose response assay to identify inverse agonists of the interaction between peroxisome proliferator-activated receptor gamma (PPARg) and nuclear receptor co-repressor 2 (NCOR2).; format: functional
SUMO-activating enzyme = SUMO-activating enzyme (Homo sapiens, UniProt Q9UBT2); assay: blockers of UBC9-mediated SUMO conjugation – biochemical, AlphaScreen, SUMOylation inhibitor project, confirmation (AID 2018); format: functional
SUMO-activating enzyme, sequence (Q9UBE0 whole entry): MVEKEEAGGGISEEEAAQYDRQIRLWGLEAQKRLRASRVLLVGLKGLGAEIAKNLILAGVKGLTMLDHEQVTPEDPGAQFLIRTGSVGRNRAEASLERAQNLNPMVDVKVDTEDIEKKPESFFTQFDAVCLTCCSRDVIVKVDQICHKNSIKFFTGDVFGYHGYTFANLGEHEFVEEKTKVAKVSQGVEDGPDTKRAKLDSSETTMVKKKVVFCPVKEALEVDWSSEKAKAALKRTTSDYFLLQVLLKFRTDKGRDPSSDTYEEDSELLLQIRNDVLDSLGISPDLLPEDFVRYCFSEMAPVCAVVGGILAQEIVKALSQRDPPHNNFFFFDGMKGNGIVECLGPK
SUMO-activating enzyme, sequence (Q9UBT2 whole entry): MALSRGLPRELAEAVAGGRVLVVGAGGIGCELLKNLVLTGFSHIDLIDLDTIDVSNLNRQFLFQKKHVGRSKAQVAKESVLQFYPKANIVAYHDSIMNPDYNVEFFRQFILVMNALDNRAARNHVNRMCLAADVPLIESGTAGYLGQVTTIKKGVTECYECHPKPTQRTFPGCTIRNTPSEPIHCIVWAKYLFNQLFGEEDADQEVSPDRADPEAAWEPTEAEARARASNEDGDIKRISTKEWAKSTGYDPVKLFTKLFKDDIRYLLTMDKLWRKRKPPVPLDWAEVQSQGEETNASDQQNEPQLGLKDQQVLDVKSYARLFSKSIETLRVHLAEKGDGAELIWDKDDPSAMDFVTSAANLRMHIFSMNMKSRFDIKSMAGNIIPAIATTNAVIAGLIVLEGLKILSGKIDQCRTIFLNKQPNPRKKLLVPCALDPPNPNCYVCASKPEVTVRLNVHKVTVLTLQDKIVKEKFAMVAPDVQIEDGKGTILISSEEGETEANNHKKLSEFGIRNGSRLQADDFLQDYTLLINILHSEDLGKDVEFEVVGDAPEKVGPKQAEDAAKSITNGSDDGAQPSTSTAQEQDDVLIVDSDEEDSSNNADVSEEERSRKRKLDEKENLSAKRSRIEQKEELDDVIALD

[3] = IC50 of Artemis nuclease activity blockers – biochemical, fluorescence intensity, dose response (AID 720701); format: functional;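 note: Artemis endonuclease enzyme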
cells = format: functional, cell-based
Paired box protein Pax-8 = Paired box protein Pax-8 (Homo sapiens, UniProt Q06710); assay: PAX8 transcriptional activity inhibition in RMG-I – RMG-I cells, luciferase, cherry-pick, dose response (AID 687027); format: functional, cell-based;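 note: luciferase reporter driven by Pax8 target thyroperoxidase promoter measured by SteadyGlo luminescence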
Paired box protein Pax-8, sequence (Q06710 whole entry): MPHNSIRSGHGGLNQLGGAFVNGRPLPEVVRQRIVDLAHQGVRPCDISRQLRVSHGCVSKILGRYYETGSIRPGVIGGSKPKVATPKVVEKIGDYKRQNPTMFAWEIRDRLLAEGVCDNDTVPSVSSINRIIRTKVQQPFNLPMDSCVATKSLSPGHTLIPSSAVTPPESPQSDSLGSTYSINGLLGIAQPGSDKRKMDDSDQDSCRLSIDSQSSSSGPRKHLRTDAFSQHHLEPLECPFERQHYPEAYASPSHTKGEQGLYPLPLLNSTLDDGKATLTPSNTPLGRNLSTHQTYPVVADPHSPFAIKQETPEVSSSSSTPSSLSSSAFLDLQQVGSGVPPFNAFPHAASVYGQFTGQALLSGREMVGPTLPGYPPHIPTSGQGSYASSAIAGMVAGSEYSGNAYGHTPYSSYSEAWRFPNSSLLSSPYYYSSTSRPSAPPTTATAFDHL

[4] = target: T2, Nuclear receptor subfamily 0 group B member 1 (Homo sapiens, UniProt P51843); format: functional, cell-based;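 note: HEK293T cells transfected with SF-1 and DAX-1 plus StAR promoter luciferase reporter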
T2 sequence (P51843 whole entry): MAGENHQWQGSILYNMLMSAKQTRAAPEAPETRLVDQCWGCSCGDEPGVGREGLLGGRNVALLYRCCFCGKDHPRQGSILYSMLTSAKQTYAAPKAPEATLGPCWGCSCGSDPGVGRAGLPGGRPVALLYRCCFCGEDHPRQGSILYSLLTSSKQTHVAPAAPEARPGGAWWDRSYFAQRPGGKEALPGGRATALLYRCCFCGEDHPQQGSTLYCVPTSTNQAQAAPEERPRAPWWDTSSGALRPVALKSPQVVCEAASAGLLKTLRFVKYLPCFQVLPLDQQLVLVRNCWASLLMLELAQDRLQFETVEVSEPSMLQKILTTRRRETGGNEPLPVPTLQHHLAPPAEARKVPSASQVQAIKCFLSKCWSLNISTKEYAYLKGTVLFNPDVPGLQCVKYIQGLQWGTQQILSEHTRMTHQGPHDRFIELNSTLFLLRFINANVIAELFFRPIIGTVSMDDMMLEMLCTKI

[5] = target: G-protein coupled receptor 183 (Homo sapiens, UniProt P32249); assay: SAR confirmation of small molecule antagonists of the EBI2 receptor via a luminescent beta-arrestin assa.; format: functional
G-protein coupled receptor 183, sequence (P32249 whole entry): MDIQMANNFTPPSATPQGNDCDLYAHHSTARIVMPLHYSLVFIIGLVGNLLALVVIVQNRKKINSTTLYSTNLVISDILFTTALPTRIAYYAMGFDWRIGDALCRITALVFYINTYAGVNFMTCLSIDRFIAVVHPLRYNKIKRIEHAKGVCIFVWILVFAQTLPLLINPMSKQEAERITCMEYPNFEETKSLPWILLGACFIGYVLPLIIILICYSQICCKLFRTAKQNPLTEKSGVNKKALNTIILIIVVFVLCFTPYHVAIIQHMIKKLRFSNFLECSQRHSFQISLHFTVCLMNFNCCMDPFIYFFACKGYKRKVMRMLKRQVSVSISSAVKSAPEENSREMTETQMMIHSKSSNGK

[6] = activation of miR-122 Renilla sensor silencing – cell-based, Huh7 psiCHECK-miR122, Renilla luciferase, cherry-picked, dose response (AID 651956); format: functional;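 note: huh7 hepatoma cells stably carrying a psiCHECK-2 miR-122 sensor plasmid; renilla luciferase signal reporting endogenous miR-122 activity after 48 h compound exposure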
Streptococcus = assay: GAS UMAA2166 growth inhibition – luminescence, BacTiterGlo, counter-screen for streptokinase expression inhibitor project, dose response (AID 1915); format: functional, organism-based;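 note: potency for reduction of bacterial viability or growth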
Albumin = Albumin (Bos taurus, UniProt P02769); assay: Counterscreen for inhibitors of T-cell receptor (TCR)-CD3 interaction: Fluorescence-based biochemical high throughput dose response assay to identify inhibitors of T-cell receptor (TCR)-CD3 interaction using a TAMRA-labeled BSA probe.; format: functional
Albumin, sequence (P02769 whole entry): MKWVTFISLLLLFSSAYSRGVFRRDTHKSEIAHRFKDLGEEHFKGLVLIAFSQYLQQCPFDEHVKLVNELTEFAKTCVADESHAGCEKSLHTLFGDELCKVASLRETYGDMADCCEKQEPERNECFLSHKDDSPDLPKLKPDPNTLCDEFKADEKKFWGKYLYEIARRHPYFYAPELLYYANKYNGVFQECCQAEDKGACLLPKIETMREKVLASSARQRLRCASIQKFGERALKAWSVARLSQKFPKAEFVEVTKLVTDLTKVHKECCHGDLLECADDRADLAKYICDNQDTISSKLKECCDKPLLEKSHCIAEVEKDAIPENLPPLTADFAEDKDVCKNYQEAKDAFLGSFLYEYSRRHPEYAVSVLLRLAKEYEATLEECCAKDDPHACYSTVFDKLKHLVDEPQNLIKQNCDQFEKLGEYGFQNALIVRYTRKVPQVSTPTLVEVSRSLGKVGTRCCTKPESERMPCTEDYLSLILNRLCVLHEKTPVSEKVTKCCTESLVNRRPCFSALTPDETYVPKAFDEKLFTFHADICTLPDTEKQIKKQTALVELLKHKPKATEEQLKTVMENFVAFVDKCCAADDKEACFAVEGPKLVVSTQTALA

[7] = tested on: Streptococcus sp. 'group A'; assay: Streptococcus pyogenes SK(-)GAS viability under kanamycin – luminescence, BacTiterGlo, confirmation, counter-screen for streptokinase expression inhibitor project, dose response (AID 1900); format: functional, organism-based
[8] = potency of ADAM10 substrate cleavage blockers – biochemical, QFRET, dose response (AID 743254);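 note: ADAM10 enzyme with the DM2 quenched FRET peptide as substrate; EDANS fluorescence gain as the protease cuts the substrate; inhibitor potency against ADAM10 proteolytic activity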
[9] = target: Disintegrin and metalloproteinase domain-containing protein 17 (Homo sapiens, UniProt P78536); assay: inhibition of ADAM17 substrate cleavage – biochemical, quenched FRET substrate, counter-screen for ADAM10 exosite inhibitor project, dose response (AID 743253)
Disintegrin and metalloproteinase domain-containing protein 17, sequence (P78536 whole entry, the tested form may be a part): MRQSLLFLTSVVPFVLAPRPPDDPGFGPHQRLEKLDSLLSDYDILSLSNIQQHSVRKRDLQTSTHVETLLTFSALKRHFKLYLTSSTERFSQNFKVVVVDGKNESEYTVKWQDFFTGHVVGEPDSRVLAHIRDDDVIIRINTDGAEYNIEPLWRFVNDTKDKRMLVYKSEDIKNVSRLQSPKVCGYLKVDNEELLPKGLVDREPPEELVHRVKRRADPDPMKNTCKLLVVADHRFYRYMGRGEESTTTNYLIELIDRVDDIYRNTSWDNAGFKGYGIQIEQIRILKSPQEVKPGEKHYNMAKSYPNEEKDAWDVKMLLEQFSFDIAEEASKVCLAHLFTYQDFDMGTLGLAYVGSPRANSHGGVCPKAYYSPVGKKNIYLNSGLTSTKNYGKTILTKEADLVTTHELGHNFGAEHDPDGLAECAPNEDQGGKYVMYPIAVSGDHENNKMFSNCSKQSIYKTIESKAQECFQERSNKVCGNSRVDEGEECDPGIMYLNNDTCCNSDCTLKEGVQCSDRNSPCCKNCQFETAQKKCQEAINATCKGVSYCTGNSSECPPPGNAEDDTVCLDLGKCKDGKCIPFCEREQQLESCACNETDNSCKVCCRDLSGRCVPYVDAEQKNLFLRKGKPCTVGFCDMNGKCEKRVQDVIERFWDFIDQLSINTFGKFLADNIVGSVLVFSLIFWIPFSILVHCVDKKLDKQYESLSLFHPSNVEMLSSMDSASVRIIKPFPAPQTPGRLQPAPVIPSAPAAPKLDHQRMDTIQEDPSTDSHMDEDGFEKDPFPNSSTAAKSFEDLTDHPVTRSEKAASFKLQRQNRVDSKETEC

[10] = HIV-1 AD8 envelope cell-cell fusion blockers – cherry-pick, dose response (AID 652062); format: functional, cell-based;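 note: luciferase signal from cell-cell fusion driven by HIV-1 clade B AD8 Env; potency is for inhibitors of fusion seen as a drop in luminescence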
[11] = blockers of HIV-1 envelope-mediated cell-cell fusion – cherry-pick, dose response (AID 652057); format: functional, cell-based
[12] = off-target signal loss in HeLa-CEM21 co-culture – HeLa F-luc CTL cells, cherry-picked, counter-screen for HIV-1 Env fusion inhibitor project, dose response (AID 652040); format: functional, cell-based;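 note: potency for signal decrease marking cytotoxic or nonspecific inhibition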
[13] = viability loss in CEM21 cells – cell-based, CellTiter-Glo luminescence, cherry-picked, cytotoxicity control for viral fusion inhibitor project, dose response (AID 652042); format: functional;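 note: potency for signal decrease meaning cytotoxicity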
[14] = blockers of HIV-1 ZM109 envelope-driven cell-cell fusion – HeLa effector, CEM target cells, luciferase, cherry-pick, dose response (AID 652058); format: functional, cell-based;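 note: luciferase signal from HIV-1 Env mediated cell-cell fusion of effector and target cells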
[15] = target: Mitogen-activated protein kinase 10 (Homo sapiens, UniProt P53779); assay: Dose response biochemical screening assay for inhibitors of c-Jun N-Terminal Kinase 3 (JNK3). [Related pubchem assays: 746 ]
Mitogen-activated protein kinase 10, sequence (P53779 whole entry): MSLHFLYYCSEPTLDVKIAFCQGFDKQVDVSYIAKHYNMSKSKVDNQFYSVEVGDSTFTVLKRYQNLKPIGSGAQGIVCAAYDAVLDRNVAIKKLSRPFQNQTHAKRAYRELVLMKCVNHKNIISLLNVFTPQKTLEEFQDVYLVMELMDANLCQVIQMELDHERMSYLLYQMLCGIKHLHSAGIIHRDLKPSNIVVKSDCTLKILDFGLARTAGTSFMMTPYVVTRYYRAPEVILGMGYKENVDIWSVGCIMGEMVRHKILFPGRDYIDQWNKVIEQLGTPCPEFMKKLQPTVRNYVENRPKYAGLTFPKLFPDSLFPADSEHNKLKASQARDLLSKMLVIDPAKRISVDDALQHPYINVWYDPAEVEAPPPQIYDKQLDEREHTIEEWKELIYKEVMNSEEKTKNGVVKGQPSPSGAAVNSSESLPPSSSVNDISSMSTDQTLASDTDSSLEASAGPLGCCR

[16] = rise of 4N DNA cells, HeLa – IC50, dose response (AID 1117351); format: functional, cell-based
[17] = cytotoxicity toward HCT116 cells – cell-based, CellTiter-Glo luminescence, IC50, dose response (AID 1117332); format: functional; conditions: HCT-116
[18] = rise of 2N DNA cells, HeLa – IC50, dose response (AID 1117349); format: functional, cell-based
[19] = RKO cell viability reduction, dose response, CellTiter-Glo luminescence (AID 1117322); format: functional
[20] = HCT116 cell viability decrease, GSK3B pretreatment – CellTiter-Glo, IC50, dose response (AID 1117339); format: functional; conditions: HCT-116
[21] = cytotoxicity toward HT-29 cells – cell-based, CellTiter-Glo luminescence, IC50, dose response (AID 1117330); format: functional
[22] = cytotoxicity toward Colo320 cells – cell-based, CellTiter-Glo luminescence, IC50, dose response (AID 1117334); format: functional; conditions: COLO 320
[23] = target: Heat shock protein HSP 90-alpha (Homo sapiens, UniProt P07900); format: functional, organism-based
[24] = NIH3T3 cell viability loss – ATP luminescence, mouse fibroblasts, counter-screen, dose response (AID 2010); format: functional, cell-based;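 note: cells exposed to compound for about 90 hours before reading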
[25] = Trypanosoma cruzi growth suppression in host cells – NIH3T3 host cells, beta-gal luminescence, confirmation (AID 2044); format: functional, cell-based;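 note: intracellular parasites grown in NIH/3T3 mouse fibroblasts as host cells; luminescent beta-galactosidase reporter signal from transgenic T. cruzi replicating inside host cells; inhibitors lower the luminescence signal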
[26] = target: T3, Glutathione-S-transferase (Schistosoma japonicum, UniProt Q26513); assay: GST-antibody interaction or FRET quenching – biochemical, TR-FRET, artefact control for Vif-APOBEC3G degradation inhibitor project, dose response (AID 1117362); format: functional
T3 sequence (Q26513 whole entry): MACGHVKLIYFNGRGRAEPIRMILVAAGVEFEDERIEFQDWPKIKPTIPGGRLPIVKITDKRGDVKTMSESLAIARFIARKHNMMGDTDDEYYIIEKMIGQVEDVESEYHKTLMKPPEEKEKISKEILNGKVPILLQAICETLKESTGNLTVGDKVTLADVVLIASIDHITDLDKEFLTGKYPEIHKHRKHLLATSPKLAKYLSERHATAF

[27] = target: Sphingosine 1-phosphate receptor 2 (Homo sapiens, UniProt O95136); assay: Dose Response Cell Based Assay for Antagonists of the S1P2 Receptor. [Related pubchem assays: 856, 736 ]; format: functional
Sphingosine 1-phosphate receptor 2, sequence (O95136 whole entry): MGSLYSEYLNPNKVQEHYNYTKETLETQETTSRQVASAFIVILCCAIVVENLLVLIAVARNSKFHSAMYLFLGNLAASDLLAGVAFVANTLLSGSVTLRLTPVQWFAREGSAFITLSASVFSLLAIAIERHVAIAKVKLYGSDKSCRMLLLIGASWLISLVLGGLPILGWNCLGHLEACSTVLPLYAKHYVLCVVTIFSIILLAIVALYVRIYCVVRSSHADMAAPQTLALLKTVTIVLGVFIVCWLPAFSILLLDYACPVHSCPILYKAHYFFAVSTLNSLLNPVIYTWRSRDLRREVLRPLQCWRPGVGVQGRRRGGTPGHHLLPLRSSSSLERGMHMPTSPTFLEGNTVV

[28] = fluconazole-exposed Candida albicans growth modulators – fluorescence, retest, confirmation (AID 2467); format: functional, cell-based
Protein Tat = target: T4, Protein Tat (Human immunodeficiency virus type 1 group M subtype B (isolate HXB2)(HIV-1), UniProt P04608); format: functional;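 note: tat binding to TAR RNA read out by fluorescence polarization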
T4 sequence (P04608 whole entry): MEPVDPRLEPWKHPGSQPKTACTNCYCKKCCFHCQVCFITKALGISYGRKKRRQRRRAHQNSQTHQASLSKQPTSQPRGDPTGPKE

[29] = NIH-3T3 fibroblast cytotoxicity, dose response, cytotoxicity control, cell-based, fluorescence, Alamar Blue, secondary assay (AID 2327); format: functional;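 note: NIH-3T3 mouse fibroblasts cultured with fluconazole at 8 µg/mL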

## O=c1cc(O)[nH]c2c1sc1nc(C(F)(F)F)c3c(c12)CCCCC3
Cysteine protease ATG4B
  IC50: 11.1 µM (active)
Phospholipase A2
  IC50: 9.53 µM (active)
[1]
  IC50: > 39.8 µM (not active)
[2]
  IC50: > 39.8 µM (not active)

## O=C(Nc1cccc2nsnc12)c1ccc(-c2cccc(Cl)c2)o1
SUMO-activating enzyme
  IC50: 18.3 µM (active)
[3]
  IC50: > 20 µM (inactive)

## COc1ccc(-c2cnc3c(NC=O)cc(-c4ccccc4OC)cn23)cc1OC
cells
  IC50: > 67.6 µM (inactive)
Paired box protein Pax-8
  AC50: 1.55 µM (active)
[4]
  IC50: > 67.6 µM (inactive)

## CCCCC(=O)N1CCN(C(=O)/C=C/c2ccc(Br)cc2)CC1
[5]
  IC50: 0.00562 µM (active)

## C[C@@H]1CN([C@H](C)CO)S(=O)(=O)c2ccc(C3=CCCC3)cc2O[C@@H]1CN(C)C(=O)Cc1ccncc1
[6]
  AC50: 5.84 µM (active)

## O=C(CCCc1ccc(Br)cc1)N1CCN(Cc2ccc(Cl)cc2)CC1
[5]
  IC50: > 1 µM (inactive)

## O=C(CNC(=O)c1ccccc1Br)N/N=C\c1cc([N+](=O)[O-])cc(Br)c1O
Streptococcus
  EC50: 8.46 µM (active)
Albumin
  IC50: > 94.1 µM (inactive)
[7]
  EC50: 8.28 µM (active)

## COC(=O)[C@]12C[C@H](CC(=O)NCCC(C)C)C(=O)N(Cc3cccc4ccccc34)C1=C[C@H](C(C)C)O[C@@H]2C1CC1
[8]
  IC50: > 69.5 µM (inactive)
[9]
  IC50: > 69.5 µM (inactive)

## CSc1cccc(NC(=O)/C=C/c2ccc(Cl)cc2)c1
[8]
  IC50: > 69.5 µM (inactive)
[9]
  IC50: > 69.5 µM (inactive)

## CSc1ccc(CN2CCC2(C)C(=O)Nc2cccc(NS(C)(=O)=O)c2)cc1 (stereo unspecified)
[10]
  AC50: 21.7 µM (active)
[11]
  AC50: 9.03 µM (active)
[12]
  AC50: 11.4 µM (active)
[13]
  AC50: 58.6 µM (active)
[14]
  AC50: 10.3 µM (active)

## COC(=O)c1sccc1NC(=O)c1ccc(OC)cc1
[15]
  IC50: 26.8 µM (not active)

## CC[C@]1(O)C[C@@H]2CN(CCc3c([nH]c4ccccc34)[C@@](C(=O)OC)(c3cc4c(cc3OC)N(C)[C@H]3[C@@](O)(C(=O)OC)[C@H](OC(C)=O)[C@]5(CC)C=CCN6CC[C@]43[C@@H]65)C2)C1 [VINBLASTINE SULFATE]
[16]
  IC50: 0.0032 µM (active)
[17]
  IC50: 0.001 µM (active)
[18]
  IC50: 0.0048 µM (active)
[19]
  IC50: 0.001 µM (active)
cells
  IC50: > 67.5 µM (inactive)
Paired box protein Pax-8
  AC50: < 0.26 µM (active)
[20]
  IC50: 0.001 µM (active)
[21]
  IC50: 0.001 µM (active)
[22]
  IC50: 0.001 µM (active)
[4]
  IC50: > 67.5 µM (inactive)

## Cc1ccc2oc(-c3ccc(NC(=O)c4ccc5c(c4)OCO5)cc3)nc2c1
[1]
  IC50: 2.88 µM (active)
[2]
  IC50: 2 µM (active)

## N#Cc1ccccc1S(=O)(=O)N1CCN(C(=O)/C=C/c2ccc(F)cc2)CC1
[5]
  IC50: 0.0482 µM (active)

## CCOC(=O)C1=C(NC(=O)Nc2ccc(Cl)c(Cl)c2)Nc2ccccc2N=C1CC
Albumin
  IC50: > 94.1 µM (inactive)
[23]
  AC50: 2.11 µM (active)
[24]
  EC50: > 60 µM (not active)
[25]
  EC50: 2.13 µM (active)

## CCCOc1ccc(N)cc1N
[26]
  IC50: 15.8 µM (active)
[3]
  IC50: > 20 µM (inactive)

## CCOC(=O)c1c(-c2ccccc2)[nH]c2ccc(O)cc12
[15]
  IC50: 22.2 µM (not active)

## COc1ccccc1C#Cc1ccc([C@H]2[C@@H](CO)N3CCCCN(CCC(F)(F)F)C[C@H]23)cc1
[6]
  AC50: 17.6 µM (active)

## C[C@H](O)[C@@H]1C(=O)N2CCc3c([nH]c4cccc(-c5ccccc5)c34)[C@@H]2C[C@@H]1N(C)C(=O)OCc1ccccc1
[11]
  AC50: 5.22 µM (active)
[12]
  AC50: 3.94 µM (active)
[13]
  AC50: 32.5 µM (active)
[14]
  AC50: 3.65 µM (active)

## CN(C)/C=N\C(=O)c1sc2cc(C(F)(F)F)cnc2c1-c1cccs1
[27]
  IC50: > 30 µM (not active)

## COc1ccc(/C=N\NC(=O)c2cc(O)c(O)c(O)c2)cc1CN1CCN(c2ccc(F)cc2)CC1
Albumin
  IC50: > 94.2 µM (inactive)
[28]
  EC50: 1.46 µM (active)
Protein Tat
  IC50: > 100 µM (inconclusive)
[29]
  EC50: > 150 µM (inactive)

## COCc1cc(C)nc(SCC(=O)Nc2cc3c(cc2C#N)OCO3)c1C#N
[15]
  IC50: > 93.1 µM (not active)
